Measurements as given in patent US10479780B2, “Aminopyrazole derivatives” (Chugai Seiyaku Kabushiki Kaisha, priority 2015, dated 2019).
Where two headings read alike, the source gives them in different places.

Columns and labels:
Assay type in all cases: biochemical
[1] = target: T1, human Yes1 enzyme (Homo sapiens, UniProt P07947); assay: Yes1 enzyme inhibitory activity (time-resolved fluorometry, biotinylated peptide phosphorylation); conditions: read-out: YES_IC50
T1 construct: made in house
Summary of the method: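 Inhibition was expressed against a compound-free control to give IC50, using TR-FRET read-out (Eu-cryptate anti-pTyr antibody, streptavidin-XL665).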

[2] = target: T2, human Src enzyme (Homo sapiens, UniProt P12931); assay: Src enzyme inhibitory activity (time-resolved fluorometry, biotinylated peptide phosphorylation); conditions: read-out: SRC_IC50
T2 construct: purchased Carna Biosciences, Inc. 08-173
Summary of the method: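 Compounds were tested for blocking tyrosine phosphorylation of a biotinylated peptide substrate by recombinant human Src. Phosphorylated product was quantified by time-resolved fluorometry using europium cryptate and XL665 conjugates, and IC50 was calculated against the compound-free control.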

[3] = target: T3, human Lck enzyme (Homo sapiens, UniProt P06239); assay: Lck enzyme inhibitory activity (time-resolved fluorometry, biotinylated peptide phosphorylation); conditions: read-out: LCK_IC50
T3 construct: purchased Carna Biosciences, Inc. 08-170
Summary of the method: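 Readout pairs a europium cryptate-labelled anti-phosphotyrosine antibody with XL665-streptavidin, measured by time-resolved fluorescence. IC50 derived from percent inhibition against untreated controls.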

[4] = biotinylated peptide phosphorylation

T2 sequence (P12931 whole entry): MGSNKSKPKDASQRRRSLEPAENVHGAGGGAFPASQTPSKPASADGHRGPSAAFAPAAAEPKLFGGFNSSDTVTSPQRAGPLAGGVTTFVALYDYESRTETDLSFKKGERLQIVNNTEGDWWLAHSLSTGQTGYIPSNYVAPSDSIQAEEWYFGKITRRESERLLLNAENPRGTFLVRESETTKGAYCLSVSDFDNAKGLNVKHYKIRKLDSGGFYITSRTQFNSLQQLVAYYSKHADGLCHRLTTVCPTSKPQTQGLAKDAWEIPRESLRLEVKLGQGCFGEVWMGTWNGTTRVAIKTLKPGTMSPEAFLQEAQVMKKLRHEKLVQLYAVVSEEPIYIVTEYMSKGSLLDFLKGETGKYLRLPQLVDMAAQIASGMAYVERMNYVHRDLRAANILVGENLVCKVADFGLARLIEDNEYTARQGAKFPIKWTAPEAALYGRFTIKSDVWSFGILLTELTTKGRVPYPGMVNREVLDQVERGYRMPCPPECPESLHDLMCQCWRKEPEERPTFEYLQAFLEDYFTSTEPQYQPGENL
T3 sequence (P06239 whole entry): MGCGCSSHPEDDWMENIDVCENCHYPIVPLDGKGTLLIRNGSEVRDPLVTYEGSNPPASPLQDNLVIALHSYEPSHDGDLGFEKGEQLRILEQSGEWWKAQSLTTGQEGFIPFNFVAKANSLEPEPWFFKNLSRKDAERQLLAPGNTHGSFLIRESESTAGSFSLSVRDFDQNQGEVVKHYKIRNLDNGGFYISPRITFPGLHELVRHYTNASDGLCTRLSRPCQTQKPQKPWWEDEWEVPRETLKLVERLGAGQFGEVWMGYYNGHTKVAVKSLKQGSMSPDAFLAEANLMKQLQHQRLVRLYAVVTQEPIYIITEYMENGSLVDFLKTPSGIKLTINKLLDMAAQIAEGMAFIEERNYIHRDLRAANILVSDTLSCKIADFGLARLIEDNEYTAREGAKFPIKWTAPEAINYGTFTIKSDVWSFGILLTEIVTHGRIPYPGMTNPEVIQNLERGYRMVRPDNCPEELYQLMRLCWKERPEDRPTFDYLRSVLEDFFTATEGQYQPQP
T1 sequence (P07947 whole entry): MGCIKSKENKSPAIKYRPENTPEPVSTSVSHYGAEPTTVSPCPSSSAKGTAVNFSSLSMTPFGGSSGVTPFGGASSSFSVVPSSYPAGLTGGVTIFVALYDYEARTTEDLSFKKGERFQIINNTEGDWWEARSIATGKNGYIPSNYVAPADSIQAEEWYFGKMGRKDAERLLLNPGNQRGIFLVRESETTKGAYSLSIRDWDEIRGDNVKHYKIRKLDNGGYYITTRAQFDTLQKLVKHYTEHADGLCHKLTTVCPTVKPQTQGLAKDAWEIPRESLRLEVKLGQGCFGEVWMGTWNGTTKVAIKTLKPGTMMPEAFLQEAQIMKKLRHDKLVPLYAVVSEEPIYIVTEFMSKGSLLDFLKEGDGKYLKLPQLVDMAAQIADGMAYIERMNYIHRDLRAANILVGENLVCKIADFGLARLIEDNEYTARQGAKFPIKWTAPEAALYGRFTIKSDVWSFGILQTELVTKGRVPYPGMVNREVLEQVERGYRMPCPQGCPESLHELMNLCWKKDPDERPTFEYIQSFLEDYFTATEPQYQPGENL

SMILES | IC50 [1, 4] [nM] | IC50 [2, 4] [nM] | IC50 [3, 4] [nM] | IC50 [1] [nM] | IC50 [2] [nM] | IC50 [3] [nM]
Cc1cc(Oc2ccccc2Cl)ccc1-n1ncc(C(=O)c2cc3cc(F)c(C4CCN(C(C)C)CC4)cc3[nH]2)c1N [Example 4-2-012, [5-amino-1-[4-(2-chlorophenoxy)-2-methylphenyl]pyrazol-4-yl]-[5-fluoro-6-(1-propan-2-ylpiperidin-4-yl)-1H-indol-2-yl]methanone] | 2.2 | 9.4 | 4.9 | – | – | –
Cc1cc(Oc2ccccc2F)ccc1-n1ncc(C(=O)c2cc3cc(OCC(F)F)c(N4CCC(O)CC4)cc3[nH]2)c1N [Example 5-1-087, [5-amino-1-[4-(2-fluorophenoxy)-2-methylphenyl]pyrazol-4-yl]-[5-(2,2-difluoroethoxy)-6-(4-hydroxypiperidin-1-yl)-1H-indol-2-yl]methanone] | – | – | – | 0.77 | 13 | 3.9
Cc1cc(Oc2ccccc2F)cc(F)c1-n1ncc(C(=O)c2cc3cc(Cl)c(NS(C)(=O)=O)cc3[nH]2)c1N [Example 4-2-079, N-[2-[5-amino-1-[2-fluoro-4-(2-fluorophenoxy)-6-methylphenyl]pyrazole-4-carbonyl]-5-chloro-1H-indol-6-yl]methanesulfonamide] | 2.6 | 66 | 24 | – | – | –
Cc1cc(Oc2ccccc2F)ccc1-n1ncc(C(=O)c2cc3cc(OC4CCN(C(C)C)CC4)c(N4CCOCC4)cc3[nH]2)c1N [Example 5-1-190, [5-amino-1-[4-(2-fluorophenoxy)-2-methylphenyl]pyrazol-4-yl]-[6-morpholin-4-yl-5-(1-propan-2-ylpiperidin-4-yl)oxy-1H-indol-2-yl]methanone] | – | – | – | 0.41 | 1.8 | 1.3
Cc1cc2cc(C(=O)c3cnn(-c4c(C)cc(Oc5ccccc5F)cc4F)c3N)[nH]c2cc1N1CCC(N2CCOCC2)CC1 [Example 5-1-085, [5-amino-1-[2-fluoro-4-(2-fluorophenoxy)-6-methylphenyl]pyrazol-4-yl]-[5-methyl-6-(4-morpholin-4-ylpiperidin-1-yl)-1H-indol-2-yl] methanone] | – | – | – | 2.3 | 21 | 2
Cc1cc(Oc2c(F)cccc2F)ncc1-n1ncc(C(=O)c2cc3cc(Cl)c(NS(C)(=O)=O)cc3[nH]2)c1N [Example 4-2-086, N-[2-[5-amino-1-[6-(2,6-difluorophenoxy)-4-methylpyridin-3-yl]pyrazole-4-carbonyl]-5-chloro-1H-indol-6-yl]methanesulfonamide] | 1.6 | 99 | 8.3 | – | – | –
Cc1cc(Oc2ccccc2F)cc(F)c1-n1ncc(C(=O)c2cc3cc(OCC(F)F)c(C4CCN(S(=O)(=O)C5CC5)CC4)cc3[nH]2)c1N [Example 4-17-019, [5-amino-1-[2-fluoro-4-(2-fluorophenoxy)-6-methylphenyl]pyrazol-4-yl]-[6-(1-cyclopropylsulfonylpiperidin-4-yl)-5-(2,2-difluoroethoxy)-1H-indol-2-yl]methanone] | 3.2 | 18 | 9.1 | – | – | –
CC(C)N1CCC(c2cc3[nH]c(C(=O)c4cnn(-c5ccc(Oc6cccc(F)c6F)cc5)c4N)cc3cc2F)CC1 [Example 5-1-013, [5-amino-1-[4-(2,3-difluorophenoxy)phenyl]pyrazol-4-yl]-[5-fluoro-6-(1-propan-2-ylpiperidin-4-yl)-1H-indol-2-yl]methanone] | – | – | – | 1.6 | 30 | 2.5
Cc1cc(C#N)cc(S(=O)(=O)Nc2cc3[nH]c(C(=O)c4cnn(-c5cnc(Oc6ccccc6F)cc5C)c4N)cc3cc2C)n1 [Example 5-1-481, N-[2-[5-amino-1-[6-(2-fluorophenoxy)-4-methylpyridin-3-yl]pyrazole-4-carbonyl]-5-methyl-1H-indol-6-yl]-4-cyano-6-methylpyridine-2-sulfonamide] | 5.4 | 450 | 110 | – | – | –
Cc1cc(Oc2c(F)cccc2F)ncc1-n1ncc(C(=O)c2cc3cc(OC(F)F)c(C4CCN(C(=O)OC(C)(C)C)CC4)cc3[nH]2)c1N [Example 4-1-012, tert-butyl 4-[2-[5-amino-1-[6-(2,6-difluorophenoxy)-4-methylpyridin-3-yl]pyrazole-4-carbonyl]-5-(difluoromethoxy)-1H-indol-6-yl]piperidine-1-carboxylate] | 34 | 90 | 39 | – | – | –
Cc1cc(Oc2ccccc2F)cc(F)c1-n1ncc(C(=O)c2cc3cc(OC4CCN(C(C)C)CC4)c(Br)cc3[nH]2)c1N [Example 5-1-154, [5-amino-1-[2-fluoro-4-(2-fluorophenoxy)-6-methylphenyl]pyrazol-4-yl]-[6-bromo-5-(1-propan-2-ylpipendin-4-yl)oxy-1H-indol-2-yl] methanone] | – | – | – | 0.67 | 11 | 4.3
Cc1cc(Oc2ccccc2F)ccc1-n1ncc(C(=O)c2cc3cc(N4CCOCC4)c(-n4c(C)cc(=O)[nH]c4=O)cc3[nH]2)c1N [Example 5-1-116, 1-[2-[5-amino-1-[4-(2-fluorophenoxy)-2-methylphenyl]pyrazole-4-carbonyl]-5-morpholin-4-yl-1H-indol-6-yl]-6-methylpyrimidine-2,4-dione] | – | – | – | 0.51 | 5.2 | 1.6
Cc1cc(Oc2c(F)cccc2F)ncc1-n1ncc(C(=O)c2cc3cc(OCC(F)F)c(NC4CCN(S(C)(=O)=O)CC4)cc3[nH]2)c1N [Example 4-23-021, [5-amino-1-[6-(2,6-difluorophenoxy)-4-methylpyridin-3-yl]pyrazol-4-yl]-[5-(2,2-difluoroethoxy)-6-[(1-methylsulfonylpiperidin-4-yl)amino]-1H-indol-2-yl]methanone] | 3.6 | 21 | 11 | – | – | –
Cc1cc(Oc2ccccc2F)ccc1-n1ncc(C(=O)c2cc3cc(OC4CCN(C(C)C)CC4)c(N4C(=O)NC(C)(C)C4=O)cc3[nH]2)c1N [Example 5-1-193, 3-[2-[5-amino-1-[4-(2-fluorophenoxy)-2-methylphenyl]pyrazole-4-carbonyl]-5-(1-propan-2-ylpiperidin-4-yl)oxy-1H-indol-6-yl]-6,5-dimethylimidazolidine-2,4-dione] | – | – | – | 0.32 | 2.3 | 1.3
Cc1cc(-n2ncc(C(=O)c3cc4cc(OCC(F)F)c(C5CCN(S(C)(=O)=O)CC5)cc4[nH]3)c2N)ccc1Oc1ccccc1F [Example 5-1-217, [5-amino-1-[4-(2-fluorophenoxy)-3-methylphenyl]pyrazol-4-yl]-[5-(2,2-difluoroethoxy)-6-(1-methylsulfonylpiperidin-4-yl)-1H-indol-2-yl]methanone] | – | – | – | 1.4 | 150 | 48
Cc1cc(Oc2c(F)cccc2F)ncc1-n1ncc(C(=O)c2cc3cc(OCC(F)F)c(N4C(=O)NC5(CCNCC5)C4=O)cc3[nH]2)c1N [Example 5-1-332, 3-[2-[5-amino-1-[6-(2,6-difluorophenoxy)-4-methylpyridin-3-yl]pyrazole-4-carbonyl]-5-(2,2-difluoroethoxy)-1H-indol-6-yl]-1,3,8-triazaspiro[4.5]decane-2,4-dione] | – | – | – | 0.79 | 12 | 2.5
Cc1cc(Oc2ccccc2F)ccc1-n1ncc(C(=O)c2cc3cc(O)c(NS(C)(=O)=O)cc3[nH]2)c1N [Example 5-1-061, N-[2-[5-amino-1-[4-(2-fluorophenoxy)-2-methylphenyl]pyrazole-4-carbonyl]-5-hydroxy-1H-indol-6-yl]methanesulfonamide] | – | – | – | 0.96 | 12 | 7
CC(C)N1CCC(c2cc3cc(C(=O)c4cnn(-c5ccc(Oc6cccc(F)c6)cc5F)c4N)[nH]c3cc2F)CC1 [Example 5-1-002, [5-amino-1-[2-fluoro-4-(3-fluorophenoxy)phenyl]pyrazol-4-yl]-[6-fluoro-5-(1-propan-2-ylpiperidin-4-yl)-1H-indol-2-yl]methanone] | – | – | – | 0.87 | 6.1 | 2.2
Cc1cc(Oc2ccccc2F)ccc1-n1ncc(C(=O)c2cc3cc(OCC(F)F)c(N4CC5(CCCC5)NS4(=O)=O)cc3[nH]2)c1N [Example 5-1-323, [5-amino-1-[4-(2-fluorophenoxy)-2-methylphenyl]pyrazol-4-yl]-[5-(2,2-difluoroethoxy)-6-(2,2-dioxo-2λ6-thia-1,3-diazaspiro[4.4]nonan-3-yl)-1H-indol-2-yl] methanone] | – | – | – | 9.1 | 230 | 40
Cc1cc(Oc2c(F)cccc2F)ncc1-n1ncc(C(=O)c2cc3cc(OCC(F)F)c(N4C(=O)N[C@]5(CCNC5)C4=O)cc3[nH]2)c1N [Example 5-1-348, (5S)-3-[2-[5-amino-1-[6-(2,6-difluorophenoxy)-4-methylpyridin-3-yl]pyrazole-4-carbonyl]-5-(2,2-difluoroethoxy)-1H-indol-6-yl]-1,3,7-triazaspiro[4.4]nonane-2,4-dione] | – | – | – | 0.8 | 13 | 2
Cc1cc(Oc2ccccc2F)cc(F)c1-n1ncc(C(=O)c2cc3cc(OC(F)F)c(C4CCN(S(=O)(=O)C5CC5)CC4)cc3[nH]2)c1N [Example 4-17-007, [5-amino-1-[2-fluoro-4-(2-fluorophenoxy)-6-methylphenyl]pyrazol-4-yl]-[6-(1-cyclopropylsulfonylpiperidin-4-yl)-5-(difluoromethoxy)-1H-indol-2-yl]methanone] | 3.9 | 22 | 12 | – | – | –
